Among the test systems are EKVX NSCLC; HCT-116 colon; MDA-MB-231 breast; HT29 colon; SF-539 CNS; SW-620 colon; RPMI-8226 leukemia.
What all share (assay): inhibition of tumour cell growth, NCI panel, 48 h

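How tested: cells in 96-well plates exposed to compound for 48 hours at five concentrations. At the GI50, growth is halved. TGI denotes the concentration required for complete inhibition of growth.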

Consider 18 compounds from PubChem BioAssay (NCI).

Regarding `C1=CN2C[n+]3ccc4ccccc4c3N=C2c2ccccc21`, the TGI in the experiment on EKVX NSCLC was 38.8 µM; in the experiment on HCT-116 colon, more than 100 µM; in the experiment on MDA-MB-231 breast it was 23.6 µM; in the experiment with HT29 colon, 10.4 µM; with SF-539 CNS, 14.8 µM; with SW-620 colon, 34.2 µM. Also, the TGI in the experiment with RPMI-8226 leukemia came to 11.8 µM.
As for `COc1cc(/C(=C2/O[C@@H]([C@H]3COC(C)(C)O3)[C@H]3OC(C)(C)O[C@@H]23)c2ccc3c(c2)OCO3)cc(OC)c1OC`, the GI50 in the experiment with EKVX NSCLC is more than 25 µM; with MDA-MB-231 breast, more than 25 µM; in the experiment with HT29 colon, more than 25 µM; with SF-539 CNS, 8.05 µM; in the experiment with SW-620 colon, more than 25 µM; in the experiment on RPMI-8226 leukemia, more than 25 µM. In addition, the TGI in the experiment with EKVX NSCLC, in the experiment on MDA-MB-231 breast, with HT29 colon, in the experiment on SF-539 CNS, in the experiment on SW-620 colon and in the experiment on RPMI-8226 leukemia was more than 25 µM throughout.
For the compound `O=C(NNS(=O)(=O)c1ccccc1)c1csc(NC(=S)NC2CCCCC2)n1`, the TGI in the experiment on EKVX NSCLC was more than 100 µM; in the experiment on HCT-116 colon, 36 µM; with MDA-MB-231 breast, 52.6 µM; in the experiment with HT29 colon, more than 100 µM; with SF-539 CNS, 62.3 µM; in the experiment on SW-620 colon, 72.9 µM. In addition, the TGI in the experiment on RPMI-8226 leukemia was more than 100 µM.
`CCOC(=O)C(NC(=O)CC)(Nc1ccc(S(=O)(=O)Nc2ccc(OC)nn2)cc1)C(F)(F)F` (stereo not given): the TGI with EKVX NSCLC, in the experiment on HCT-116 colon, in the experiment on MDA-MB-231 breast, with HT29 colon, in the experiment on SF-539 CNS and in the experiment on SW-620 colon was more than 100 µM in each case. In addition, the TGI in the experiment with RPMI-8226 leukemia was more than 100 µM.
For the compound `OC1(c2ccc(Cl)cc2)c2c(c3ccccc3c3ccccc23)C2=NCCN21` (stereo not given), the TGI amounted to 35.4 µM in the experiment on EKVX NSCLC; 25.7 µM in the experiment on HCT-116 colon; 26.8 µM in the experiment on MDA-MB-231 breast; 35.5 µM with HT29 colon; 24.5 µM with SF-539 CNS; 32.8 µM in the experiment with SW-620 colon. For the same compound, the TGI with RPMI-8226 leukemia is more than 100 µM.
For `O=c1c2cc(I)ccc2nc(SCc2nnco2)n1Cc1ccccc1`, the TGI with EKVX NSCLC, with HCT-116 colon, in the experiment on MDA-MB-231 breast, in the experiment on HT29 colon, in the experiment with SF-539 CNS and with SW-620 colon was more than 100 µM each time. Moreover, in the experiment with RPMI-8226 leukemia, the TGI was more than 100 µM.
For the compound `O=C1c2cc3c(cc2CC1Cc1ccc2c(c1)CCC2)CCC3` (stereo not given), the TGI in the experiment with EKVX NSCLC, with HCT-116 colon, in the experiment with MDA-MB-231 breast, in the experiment on HT29 colon, in the experiment on SF-539 CNS and in the experiment on SW-620 colon was more than 100 µM in each case. The TGI with RPMI-8226 leukemia is more than 100 µM.
As for `COc1cccc([C@@H]2CC(=O)c3cc4c(cc3N2)OCO4)c1`, the TGI with EKVX NSCLC, with HCT-116 colon, with MDA-MB-231 breast, with SF-539 CNS, with SW-620 colon and with RPMI-8226 leukemia was more than 100 µM each time.
With `CC1(C)CN=CC(C)(OCc2ccccc2)C(=O)NC(C)(C)CN=CC(C)(OCc2ccccc2)C(=O)N1` (stereo not given), the TGI in the experiment with EKVX NSCLC, with HCT-116 colon, in the experiment with MDA-MB-231 breast, in the experiment on HT29 colon, in the experiment on SF-539 CNS and in the experiment with SW-620 colon was more than 10 µM in each case. In the experiment with RPMI-8226 leukemia, the TGI is more than 10 µM.
Regarding `O=C1CCCCN1C(=O)c1ccc([N+](=O)[O-])cc1`, the TGI in the experiment on EKVX NSCLC, in the experiment with HCT-116 colon, in the experiment with MDA-MB-231 breast, in the experiment on HT29 colon, with SF-539 CNS and in the experiment on SW-620 colon was more than 100 µM each time. The same compound showed a TGI in the experiment with RPMI-8226 leukemia of more than 100 µM.
`CC1C(C#N)(C#N)C(C#N)=C(N)C1(C)[N+](=O)[O-]` (stereo not given): the TGI is 42.6 µM in the experiment with EKVX NSCLC; more than 100 µM in the experiment with HCT-116 colon; more than 100 µM in the experiment with MDA-MB-231 breast; more than 100 µM in the experiment with HT29 colon; more than 100 µM in the experiment on SF-539 CNS; more than 100 µM in the experiment on SW-620 colon. The same compound had a TGI with RPMI-8226 leukemia of more than 100 µM.
Consider `CCN(CC)C1Oc2cc3c(cc2C(c2cccc(OC)c2O)C1C)OCO3` (stereo not given), for which the TGI is 62.3 µM in the experiment with EKVX NSCLC; 21.1 µM with HCT-116 colon; more than 49.7 µM in the experiment on MDA-MB-231 breast; 27.5 µM in the experiment with HT29 colon; 6.3 µM in the experiment on SF-539 CNS; 35.4 µM in the experiment on SW-620 colon. The compound also yielded a TGI in the experiment on RPMI-8226 leukemia of 13.6 µM.
Consider `CO[C@]12CC(=O)C3(C(C[C@H]4CC5CC[C@H]6C[C@@H](OC(C)=O)CC[C@]6(OC(C)=O)C5C[C@@]43C)C1)C1C[C@H]3[C@@H]4CC[C@H]5C[C@@H](OC(C)=O)CC[C@]5(OC(C)=O)[C@H]4CC[C@]3(C)C12` (stereo not given in full), for which the TGI in the experiment on EKVX NSCLC, in the experiment on HCT-116 colon, in the experiment with MDA-MB-231 breast, in the experiment on HT29 colon, with SF-539 CNS and in the experiment with SW-620 colon was more than 100 µM in each case. Also, the TGI with RPMI-8226 leukemia is more than 100 µM.
Turning to `O=C(CSCC(=O)N/N=C\c1ccccc1F)N/N=C\c1ccccc1F`, the TGI with EKVX NSCLC, in the experiment with HCT-116 colon, in the experiment on MDA-MB-231 breast, with HT29 colon, in the experiment on SF-539 CNS and in the experiment with SW-620 colon was more than 100 µM in each case. Moreover, the TGI in the experiment on RPMI-8226 leukemia is more than 100 µM.
For the compound `COC1=CC(=O)c2nc3ccccc3c3ccnc1c23`, the TGI was 25.8 µM with EKVX NSCLC; more than 22.8 µM in the experiment on HCT-116 colon; more than 69 µM in the experiment with MDA-MB-231 breast; 12.5 µM in the experiment with HT29 colon; 13.3 µM in the experiment with SF-539 CNS; 35.1 µM with SW-620 colon. The compound further yielded a TGI in the experiment with RPMI-8226 leukemia of more than 65.5 µM.
Regarding `COC12C=CC(CC1)C(C)(C)C2OS(C)(=O)=O` (stereo not given), the TGI in the experiment with EKVX NSCLC, in the experiment on HCT-116 colon, in the experiment on MDA-MB-231 breast, in the experiment on HT29 colon, with SF-539 CNS and in the experiment with SW-620 colon was more than 100 µM throughout. In addition, in the experiment with RPMI-8226 leukemia, the TGI is more than 100 µM.
In the case of `C=CCOCn1ccc(N)nc1=O`, the TGI in the experiment with EKVX NSCLC, in the experiment on HCT-116 colon, in the experiment on MDA-MB-231 breast, in the experiment on HT29 colon, with SF-539 CNS and in the experiment on SW-620 colon was more than 100 µM throughout. In the experiment on RPMI-8226 leukemia, the TGI is more than 100 µM.
As to `CC(=O)OCC1OC(n2c(N)c(C#N)c(-c3cccc(Cl)c3)c(C#N)c2=S)C(OC(C)=O)C(OC(C)=O)C1OC(C)=O` (stereo not given), the TGI with EKVX NSCLC is more than 100 µM; in the experiment on HCT-116 colon, 94 µM; with MDA-MB-231 breast it was 50.2 µM; with HT29 colon, 84.5 µM; in the experiment with SF-539 CNS, 27.7 µM; with SW-620 colon, more than 100 µM. The TGI in the experiment on RPMI-8226 leukemia came out at 39.7 µM.
